From patent US20210253598A1, “ARYL ANNULATED MACROCYCLIC INDOLE DERIVATIVES” (priority 2017, published 2021)
“And” between values parts separate entries of the source, which are not always exact repeats. Equal entries are not always repeated. Structures can show the parent of a compound that is named as a salt. Where two headings read alike, the source gives them in different places.

Assays:
SUDHL5 [1] = test: Induction of cytotoxicity in SUDHL5 cells, CellTiter-Glo (Assay 6); format: cell-based; settings: Homo sapiens, SU-DHL-5, 5 h, SUDHL5, 5 hours incubation, median, read-out: Cytotox SUDHL5 [M] (median)
Method: (§1) Induction of Cytotoxicity Upon Treatment of Cells with Selected Compounds
(§2) In principle, compounds that induce apoptosis will concomitantly induce cell cytotoxicity. Therefore, cytotoxicity assays were run in parallel in SUDHL5 and SUDHL10 cells.
(§3) As a control, medium without cells was also added to the plate. Cells were incubated in a humidified incubator at 37° C. overnight. […] Rim wells were excluded. The cells were incubated for 5 hours in a humidified incubator at 37° C. After this incubation, 30 μl of CellTiter-Glo® Luminescent Cell Viability reagent (Promega, G7573) was added to each well using the Multidrop Combi Reagent Dispenser, followed by 15 minutes incubation on a shaker at room temperature. Finally, luminescence was read at 0.1 ms, with a gain of 3000 using the PHERAstar FS microplate reader (BMG Labtech).

SUDHL5 [2] = test: Induction of caspase-3/7 activity in SUDHL5 cells (Assay 4); format: cell-based; settings: SUDHL5, 3 hours treatment, Caspase-Glo 3/7, median, read-out: Caspase SUDHL5 [M] (median)
Method: (§4) Induction of Caspase-3/7 Activity Upon Treatment of Cells with Selected Compounds
(§5) The BH3-domain of MCL-1 sequesters pro-apoptotic proteins, thereby inhibiting apoptosis. In contrast, MCL-1 inhibitors are expected to antagonize this effect leading to an increase in apoptosis, which can be determined by measuring the activity of caspase-3/7.
(§6) The activity of caspase-3/7 was determined in DLBCL (Diffuse large B-cell lymphoma) cell lines (SUDHL5 and SUDHL10) upon treatment with different compounds, using the Caspase-Glo® 3/7 reagent from Promega (G8092).
(§7) As a control, medium without cells was also added to the plate. Cells were incubated in a humidified incubator at 37° C. overnight.
(§8) Rim wells were excluded. The cells were incubated for 3 hours in a humidified incubator at 37° C. After this incubation, 30 μl of Caspase-Glo® 3/7 reagent (Promega G8092) was added to each well using the Multidrop Combi Reagent Dispenser, followed by 1 hour incubation at 37° C. Finally, luminescence was read at 0.1 ms, with a gain of 3000 using the PHERAstar FS microplate reader (BMG Labtech).
(§9) For the evaluation of the results, the background measured with “medium-only” was subtracted from all other values. Then, the values were normalized to DMSO-only treated cells (every value was divided by the mean of the DMSO control).

SUDHL10 [3] = test: Induction of caspase-3/7 activity in SUDHL10 cells (Assay 4); format: cell-based; settings: SUDHL10, 3 hours treatment, Caspase-Glo 3/7, median, read-out: Caspase SUDHL10 [M] (median)
Method: as §4, §5, §6, §7, §8, §9

SUDHL10 [4] = test: Induction of cytotoxicity in SUDHL10 cells, CellTiter-Glo (Assay 6); format: cell-based; settings: SUDHL10, 5 hours incubation, median, read-out: Cytotox SUDHL10 [M] (median)
Method: as §1, §2, §3

A2780 = test: Anti-proliferative effect in A2780 cells, CellTiter-Glo (Assay 7); format: cell-based; settings: A2780, 72 hours incubation, CellTiter-Glo, several values per example, read-out: Antiproli A2780
Method: (§10) Assessment of the Anti-Proliferative Effect of Compounds in Different Cell Lines
(§11) The impact of compounds on the proliferation of different cell lines was assessed using the CellTiter-Glo® Luminescent Cell Viability reagent from Promega (G7573).
(§12) In parallel, cells were plated in a reference (day 0) plate for time zero determination. Cells were incubated in a humidified incubator at 37° C. overnight.
(§13) Rim wells were excluded. The cells were incubated for 72 hours in a humidified incubator at 37° C. The day 0 plate was measured by adding 30 μL/well of CTG solution (CellTiter-Glo® Luminescent Cell Viability reagent, Promega G7573) to time zero wells in the reference plate followed by a 10 minutes incubation and luminescence reading at 0.1 ms. using the PHERAstar FS microplate reader (BMG Labtech).
(§14) After 72 hours incubation, the treated plates were measured in the same way as the day 0 plate mentioned above. The Bella DRC Master Sheet was used to calculate IC50s, with CI=day 0 values and C0=DMSO control values.

MV-4-11 = test: Anti-proliferative effect in MV-4-11 cells, CellTiter-Glo (Assay 7); format: cell-based; settings: MV-4-11, 72 hours incubation, CellTiter-Glo, several values per example, read-out: Antiproli MV-4-11
Method: as §10, §11, §12, §13, §14

SUDHL5 [5] = test: Anti-proliferative effect in SUDHL5 cells, CellTiter-Glo (Assay 7); format: cell-based; settings: SUDHL5, 72 hours incubation, CellTiter-Glo, median, read-out: Antiproli SUDHL5 [M] (median)
Method: as §10, §11, §12, §13, §14

MCL-1 = MCL-1 (Homo sapiens, UniProt Q07820, K194A/K197A/R201A); test: Protein-protein interaction assay MCL-1/Noxa BH3 peptide, TR-FRET (MCL-1 assay, Assay 1); format: binding; settings: MBP-MCL-1 / Noxa BH3 peptide
MCL-1, sequence (Q07820 173-321 K194A/K197A/R201A, looked up): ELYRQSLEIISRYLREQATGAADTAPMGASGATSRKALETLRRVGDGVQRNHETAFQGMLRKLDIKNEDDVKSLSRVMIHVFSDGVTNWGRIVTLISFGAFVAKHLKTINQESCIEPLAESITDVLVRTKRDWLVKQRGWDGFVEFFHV
Method: The dose-dependent inhibition by the compounds described in this invention of the interaction between MCL-1 and the BH3 domain of Noxa (both human) was determined using a steady state binding competition assay with time-resolved fluorescence energy transfer (TR-FRET) readout. For that purpose MCL-1 (amino acids 173-321, N-terminal fused to Maltose Binding Protein (MBP), SEQ ID 1) and a synthetic Noxa BH3-derived peptide of sequence Biotin-PEG2-PEG2-PAELEVE-Nva-[…]-amide (SEQ ID 2) served as protein receptor and tracer ligand respectively. The MBP-MCL-1 was purchased from Beryllium (Bedford, Mass., USA). The expression and purification of this protein construct has been described elsewhere (DOI:10.1371/journal.pone.0125010). The Noxa BH3-derived peptide can be obtained from e.g. Biosyntan (Berlin, Germany).
For that, 100-fold concentrated DMSO solutions were prepared by serial dilutions (1:3.4) of a 2 mM stock solution in a clear, 384-well microtiter plate (Greiner Bio-One, Frickenhausen, Germany). From there, 50 nl were transferred in a dark test plate (Greiner Bio-One, Frickenhausen, Germany). The assay was initiated by addition of 2 μl of a 2,5-fold concentrated MBP-MCL-1 solution (usually for a 1 nM end concentration in 5 μl reaction volume) in aqueous assay buffer [50 mM Tris/HCl pH 7, 100 mM sodium chloride (NaCl), 50 mM potassium fluoride (KF), 0.005% Tween-20, 2 mM DTT, 0.1% bovine gamma globulin (BGG)] to the compounds in the assay plate. This was followed by a 10-minute incubation step at 22° C. for pre-equilibration of the putative complex between MBP-MCL-1 and the compounds.
The mixture was incubated in the dark for one hour at 22° C. and then overnight at 4° C. The formation of MCL-1/Noxa complexes was determined by measuring the resonance energy transfer of the anti-MBP-Eu-cryptate antibody to the streptavidin-XL665 present in the reaction.
The resulting data (ratio) were normalized, taking 0% inhibition as the mean value of control measurements (usually 32 data points) where all reagents were included. In this case 50 nl DMSO were used instead of compounds. […] IC50 values were determined by regression analysis based on a 4 parameter equation (minimum, maximum, IC50, Hill; Y=Max+(Min−Max)/(1+(X/IC50)^Hill) using the Screener Software (Genedata).

SMILES	IC50 (SUDHL5 [1]) [M]	EC50 (SUDHL5 [2]; Homo sapiens, SU-DHL-5, 3 h) [M]	EC50 (SUDHL10 [3]; Homo sapiens, SU-DHL10, 3 h) [M]	IC50 (SUDHL10 [4]; Homo sapiens, SU-DHL10, 5 h) [M]	IC50 (A2780; Homo sapiens, A2780, 72 h) [µM]	IC50 (MV-4-11; Homo sapiens, MV4-11, 72 h) [µM]	IC50 (SUDHL5 [5]; Homo sapiens, SU-DHL-5, 72 h) [M]	IC50 (MCL-1; MCL-1 Assay [M] (median))	IC50 (A2780)	IC50 (MV-4-11)	IC50 (A2780; Acetate Salt) [µM]	EC50 (SUDHL5 [2]) [M]	EC50 (SUDHL10 [3]) [M]	IC50 (SUDHL10 [4]) [M]	IC50 (SUDHL5 [5]) [M]	IC50 (MCL-1; median, read-out: MCL-1 Assay [M] (median))
Cc1c2c(nn1C)CN(C(=O)NCC1CCOCC1)Cc1ccccc1Cn1c(C(=O)O)c(CCCOc3cccc4ccccc34)c3cccc-2c31 (racemic) [Example 27, (rac)-4,5-Dimethyl-17-[3-(naphthalen-1-yloxy)propyl]-8-[(tetrahydro-2H-pyran-4-ylmethyl)-carbamoyl]-7,8,9,14-tetrahydro-5H-indolo[1,7-bc]pyrazolo[4,3-e][2,8]benzodiazacycloundecine-16-carboxylic Acid]	> 3.3e-05	> 3.3e-05	> 3.3e-05	> 3.3e-05	31.4	24.8	2.7e-05	3.1e-08								
Cc1c2c(nn1C)COCc1ncccc1Cn1c(C(=O)O)c(CCCOc3cccc4ccccc34)c3cccc-2c31 [Example 07]									29.6 µM and > 33 µM	5.15 µM and 5.5 µM						
Cc1c2c(nn1C)CN(C(=O)NC1CCOCC1)Cc1ccccc1Cn1c(C(=O)O)c(CCCOc3cccc4ccccc34)c3cccc-2c31 (racemic) [Example 24, (rac)-4,5-Dimethyl-17-[3-(naphthalen-1-yloxy)propyl]-8-(tetrahydro-2H-pyran-4-ylcarbamoyl)-7,8,9,14-tetrahydro-5H-indolo[1,7-bc]pyrazolo[4,3-e][2,8]benzodiazacycloundecine-16-carboxylic Acid]	> 3.3e-05	> 3.3e-05	> 3.3e-05	> 3.3e-05	> 33	> 33	> 3.3e-05	5.3e-08								
Cc1c2c(nn1C)CNCc1ccccc1Cn1c(C(=O)O)c(CCCOc3cccc4ccccc34)c3cccc-2c31 (racemic) [Example 11, (rac)-4,5-Dimethyl-17-[3-(naphthalen-1-yloxy)propyl]-7,8,9,14-tetrahydro-5H-indolo[1,7-bc]pyrazolo[4,3-e][2,8]benzodiazacycloundecine-16-carboxylic Acid]	5.6e-06	5.6e-06	1.6e-05	1.5e-05	11.8	7.59	7.2e-06		12.2 µM	7.42 µM						
Cc1c2c(nn1C)COCc1ccccc1Cn1c(C(=O)O)c(CCCOc3cccc4ccccc34)c3ccc(F)c-2c31 (racemic) [Example 67, (rac)-15-Fluoro-13,14-dimethyl-1-(3-(naphthalen-1-yloxy)propyl)-4,9,11,13-tetrahydrobenzo[3,4]pyrazolo[4′,3′:9,10][1,6]oxaazacycloundecino[8,7,6-hi]indole-2-carboxylic Acid]	1.8e-06	2.2e-06	5.9e-06	4.9e-06	20.5	3.08	2.4e-06									
Cc1c2c(nn1C)CN(S(=O)(=O)c1ccc(N3CCOCC3)nc1)Cc1ccccc1Cn1c(C(=O)O)c(CCCOc3cccc4ccccc34)c3cccc-2c31 (racemic) [Example 17, (rac)-4,5-Dimethyl-8-{[6-(morpholin-4-yl)pyridin-3-yl]sulfonyl}-17-[3-(naphthalen-1-yloxy)propyl]-7,8,9,14-tetrahydro-5H-indolo[1,7-bc]pyrazolo[4,3-e][2,8]benzodiazacycloundecine-16-carboxylic Acid Acetate Salt]	3.1e-06	3e-06	8.5e-06	1.4e-05	4.91		3.9e-06	3.4e-08			5.77					
CCc1c2c(nn1C)COCc1ccccc1Cn1c(C(=O)O)c(CCCOc3cccc4ccccc34)c3ccc(F)c-2c31 (racemic) [Example 70, (rac)-14-Ethyl-15-fluoro-13-methyl-1-(3-(naphthalen-1-yloxy)propyl)-4,9,11,13-tetrahydrobenzo[3,4]pyrazolo[4′,3′:9,10][1]oxa[6]azacycloundecino[8,7,6-hi]indole-2-carboxylic Acid]									22.8 µM and 22.5 µM	2.41 µM and 2.27 µM		1.6e-06	8.6e-06	6.1e-06	2.2e-06	2.1e-09
